# Test results published in patent US20260207637A1, “MODULATOR FOR PROMOTING BINDING OF BUTYROPHILIN 3A1/2A1” (priority 2023, published 2026).
# Where two headings read alike, the source gives them in different places.
# Columns and labels:
# Huh7/FG2 cells = test: EC50 assay of small molecule activated γδ T cells to kill Huh7/FG2 tumor cells; assay type: cell-based; details: γδT cells + Huh7/FG2, E:T=5:1, co-culture 20 hours, 0.05-100 nM, read-out: Huh7 killing (EC50)
# Protocol: (§1) γδT cells and Huh7/FG2 tumor cell lines were expanded and cultured in vitro. The Huh7/FG2 cells were digested, and the cells were counted and resuspended in DMEM complete medium, the density of the cell suspension was adjusted and added into a 96-well plate at 5×10^3 cells/100 μL/well for overnight incubation. On the next day, the test compound and the control compound were diluted at a 3-fold ratio with DMSO, and 4 μL of the diluted compound was added to 96 μL of culture medium for 25-fold dilution. 5 μL of 25-fold diluted compound was transferred to the corresponding well which had been plated with tumor cells, and the actual detection concentration was in the range of 0.05-100 nM. γδT cells were resuspended in γδT complete medium, and the density of the cell suspension was adjusted according to the effector-target ratio of E:T=5:1, and then the cell was added to the corresponding well at 2.5×10^4 cells/100 μL/well. After co-culture at 37° C., 5% CO2 for 20 hours, the cells were centrifuged. […] After standing for 18 minutes in the dark, the signal of chemiluminescence was detected. The EC50 value was calculated by four-parameter fitting, with the corresponding signal value of the well with only tumor cells as the minimum killing value, and the corresponding value of the well without tumor cells as the maximum killing value.
# SKOV3/ELP cells = test: EC50 assay of small molecule activated γδ T cells to kill SKOV3/ELP tumor cells; assay type: cell-based; details: γδT cells + SKOV3/ELP, E:T=2:1, co-culture 20 hours, 0.05-100 nM, read-out: SKOV3 killing (EC50)
# Protocol: as §1, with “cells and SKOV3/ELP tumor cell” for “cells and Huh7/FG2 tumor cell”, “vitro. The SKOV3/ELP cells were” for “vitro. The Huh7/FG2 cells were”, “resuspended in MC5A complete medium,” for “resuspended in DMEM complete medium,”, “5×10^3 cells/100 […]/well for overnight” for “5×10^3 cells/100 μL/well for overnight”, “ratio of E:T=2:1, and then” for “ratio of E:T=5:1, and then”, “well at 1×10^4 cells/100 μL/well.” for “well at 2.5×10^4 cells/100 μL/well.”
# [1] = Stability experiment of compounds in human whole blood; assay type: in vitro ADME; details: 37° C., 0-4 h
# Protocol: • (1) An appropriate amount of blank whole blood was added into an EP tube containing sodium heparin, then added the working solution of the test substance to a final concentration of 1 μM, and mixed by vortex; • (2) The sample was placed in a water bath at 37° C. with two parallel experiments; for one experiment, the time points were 0 h, 0.5 h, 1 h, 2 h, and 4 h; another experiment was performed to obtain the absolute zero point, which was compared with the 0 h point. • (3) An appropriate amount of sample was taken out from the incubation system, to which 300 μL of internal standard precipitant was added for protein precipitation; (4) all samples were centrifuged at 6° C. for 10 min (15700×g). • (5) 150 μL of the supernatant was taken out, to which 150 μL of water was added, which was mixed by vortex, and analyzed by LC-MS/MS. The stability data of compounds in human whole blood is as follows: […]
# [2] = Stability experiment of compounds in human liver microsomes; assay type: in vitro ADME; details: NADPH, 37° C.
# Protocol: Compounds were prepared as a 10 mM stock solution with DMSO and then diluted with 80% acetonitrile-water to a 100 μM working solution for later use. Human liver microsomes were obtained from BIOIVT.
# (1) The liver microsomes taken out from the refrigerator were placed in a 37° C. water bath thermostatic oscillator, pre-incubated for 5 min, and thawed for later use.
# (2) A certain amount of NADPH was weighed and added to an appropriate amount of magnesium chloride solution to dissolve into a 2 mM solution for later use.
# (3) A mixed solution of the warm incubation system (containing no β-NADPH) was prepared according to the proportions in the “composition of the experimental warm incubation system” above and dispensed at 165 μL/tubes (45 μL/tube for the negative control group and 120 μL/tube for the positive control group).
# (4) For the sample at 0 min: 200 μL of internal standard working precipitant was added and then 30 μL of NADPH solution was added.
# (5) For other samples: 135 μL NADPH solution was added to initiate the reaction (45 μL magnesium chloride solution was added for the negative control group), and incubated in a 37° C. water bath for 5, 15, 30, and 60 min (incubated in a 37° C. water bath for 60 min for the negative control group), then 60 μL was sampled and added to 200 µL of precipitant containing internal standard.
# (6) For the positive control group: 90 L NADPH solution was added to initiate the reaction, and incubated in a 37° C. water bath for 5, 15 min, then 60 μL was sampled and added to 200 μL of precipitant containing internal standard.
# (7) For neat sample: 297 μL of water was pipetted into a tube, 1000 μL of internal standard working solution was added, and 3 μL of test compound working solution was added.
# (8) All samples were vortexed and centrifuged.
# (9) 150 μL of the supernatant was sampled and added to 150 μL of water, mixed uniformly by vortex, and analyzed by LC-MS/MS. The half-life stability data of human liver microsomes is as follows: […]
SMILES,"EC50 (Huh7/FG2 cells; Homo sapiens, Huh-7) [nM]","EC50 (SKOV3/ELP cells; Homo sapiens, SK-OV-3) [nM]","half-life at 1 μM ([1]; whole blood (sodium heparin), read-out: T1/2 in human whole blood (converted)) [min]",half-life ([2]; read-out: T1/2 in human liver microsomes) [min],EC50 (Huh7/FG2 cells) [nM],EC50 (SKOV3/ELP cells) [nM],T1/2 in human whole blood ([1]; 1 μM) [min],T1/2 in human liver microsomes [2] [min]
"C/C(=C\CCP(=O)(N[C@@H](C)C(=O)OC(C)C)Oc1ccccc1)CO (stereo partly drawn) [Control compound 1, Isopropyl (((E)-5-hydroxy-4-methylpent-3-en-1-yl)(phenoxy)phosphoryl)-L-alaninate, reference compound]",1.68,1.14,> 480,8.7,–,–,–,–
"C/C(=C\CC[P@@](=O)(N[C@@H](C)C(=O)O[C@@H]1CCOC1)Oc1ccccc1)CO [Compound 19, (R)-tetrahydrofuran-3-yl ((S)-((R)-5-hydroxy-4-methylpent-3-en-1-yl)(phenoxy)phosphoryl)-L-alaninate]",–,–,–,–,0.42,0.47,>480,47.8
